Consider 90 compounds from a melting point compilation (Tetko et al.; mined from patent text by program, amines drawn as free bases though some values may be those of a salt).

A word on the melting point: it is the temperature, or range, at which the solid turns liquid. `Cn1c(C(=O)O)cc2c(OC[C@@H](O)CN3CCC(c4ccc5ccccc5c4)CC3)cccc21` returned a melting point of 158 to 161 °C.

For the compound `Cc1c(-c2ccc(Cl)c(C(=O)N(C)C)c2)sc2nc(N)[nH]c(=O)c12`, the melting point lay within 300 to 320 °C.

`O=C1N(CO)CCN1CCN1CCC(c2cn(-c3ccc(F)cc3)c3ccc(Cl)cc23)CC1` registered a melting point of 118 to 119 °C.

`CC(=O)c1ccc(Cn2ccc3c4c(N)nc(N)nc4ccc32)cc1` had a melting point of 224 to 225 °C.

For `O=Cc1ccc(COC(=O)Nc2cccc3ccccc23)cc1`, the melting point is 153 to 154 °C.

Take `COc1cc2nc(N3CCN(C(=O)C=Cc4ccccc4)CC3)nc(N)c2cc1OC`: the melting point was in the range of 245 to 248 °C.

As for `O=c1c2cnccc2[nH]c2ccnn12`, the melting point was > 300 °C.

The compound `CCc1ccc(C(=O)c2cccc(F)c2)c(O)c1` came in with a melting point of 0 to 20 °C.

In the case of `CC(=O)c1ccccc1-c1ccc(C(=O)O)cc1`, the melting point fell in the range of 199 to 201 °C.

Turning to `CCOCCn1c(C(=O)C2CCN(CCC3(c4ccccc4)CCN(C(=O)c4cc(OC)c(OC)c(OC)c4)C3)CC2)nc2ccccc21` (stereo not given), the melting point fell in the range of 65 to 70 °C.

Compound `N#Cc1ccc(Nc2cccc(I)c2)c(N)c1` came in with a melting point of 170 to 172 °C.

With `CCCCNC(=O)c1ccc(F)c2c1CC(N(CCCc1c[nH]c3ccc(F)cc13)C1CCC1)CO2` (stereo not given), the melting point was found to be 106 °C.

`O=C(O)C1Cc2cccc(-c3ccccc3)c2C1` (stereo not given) came in with a melting point of 97 to 102 °C.

Compound `CC(CC#CC(C)(C)O)C1=CCC2C3=CC=C4CC(O)CCC4(C)C3CCC12C` (stereo not given) displayed a melting point of 185 to 192 °C.

In turn, `COc1cc(OC)c(C(C)=O)c(O)c1CCC(C)C` returned a melting point of 100 °C.

`O=C(O)C1(C2CCCc3ccccc32)CC1` (stereo not given) showed a melting point of 140 to 142 °C.

As to `CCCCCCCCCCc1ccnc(C(=O)NCC(=O)OCC)c1`, the melting point was in the range of 29 to 30 °C.

The compound `COc1ccc2c(c1)N(c1cccc(Cl)c1)C(=O)C2(C)NC(=O)OCc1ccccc1` (stereo not given) had a melting point of 143 to 144 °C.

`CC(=O)N1CCN=C1Nc1cc(C)nn1-c1cccc2ccccc12` displayed a melting point of 194 to 195 °C.

`C1CCC(CC2CNCCNCCNCCNCCN2)CC1` (stereo not given) showed a melting point of 87 to 89 °C.

`COc1cccc2c(Cl)c(CCCCl)cnc12` displayed a melting point of 86 to 89 °C.

On to `O=C(Cn1c(-c2ccc(Br)cc2)nc2cccnc21)Nc1ccccc1`, for which the melting point fell in the range of 242 to 244 °C.

`C#CC(OC)c1cc(C(C)(C)C)cc(C(C)(C)C)c1OC` (stereo not given) showed a melting point of 68 to 70 °C.

As for `COc1cc(Nc2c(C#N)cnc3cc(-c4ccc(CN5CCC[C@@H]5C(N)=O)o4)ccc23)c(Cl)cc1Cl`, the melting point was 121 to 126 °C.

For `Clc1ccccc1Cc1nc2cccc(CCc3nccs3)c2o1`, the melting point fell in the range of 64 to 66 °C.

`CCCn1c(=O)c2c(nc(C3CCC(=O)C3)n2Cc2ccccc2)n(CCC)c1=O` (stereo not given) registered a melting point of 145 °C.

In turn, `C[C@@H](NC(=O)c1ccc(-c2csnn2)cc1)[C@](O)(Cn1cncn1)c1ccc(F)cc1F` yielded a melting point of 196 to 198 °C.

`COc1cc(C(=O)N2CCCC(CCN3CCC(C(=O)c4nc5ccccc5n4Cc4ccc(F)cc4)CC3)(c3ccc(Cl)c(Cl)c3)C2)cc(OC)c1OC` (stereo not given) returned a melting point of 93 to 95 °C.

For the compound `NS(=O)(=O)c1cc2c(Cl)nccc2o1`, the melting point was 192 to 194 °C.

Compound `O=C(O)Cc1ccc(NC(=O)C(Cn2ccnc2)NS(=O)(=O)c2ccc(Br)cc2)cc1` (racemic) had a melting point of 131 to 140 °C.

`COc1nc(OC)c(C(C)C)c(C(C#N)c2cc(C)cc(Cl)c2)n1` (stereo not given) came in with a melting point of 105 to 106 °C.

`Cc1nccn1-c1nc(-c2ccc(Cl)cc2)c(CCCCOS(C)(=O)=O)o1` showed a melting point of 100 to 101 °C.

Compound `CC(=O)c1ccc2c(c1)Cc1cccnc1O2` displayed a melting point of 142 to 144 °C.

As to `N#Cc1cc(Cl)c(-n2ncc(-c3nc(C#N)c(C#N)[nH]3)n2)c(Cl)c1`, the melting point lay within 183 to 185 °C.

In turn, `CS(=O)(=O)OCCn1c2ccc(O)cc2c2c3c(c(-c4c(Cl)cccc4Cl)cc21)C(=O)NC3=O` came in with a melting point of 255 to 260 °C.

The compound `CCOC(=O)CCCCCNc1ccccc1` returned a melting point of 34 to 37 °C.

In turn, `CNC(=O)NC(Cc1c[nH]c2ccccc12)C(=O)NCc1cc(C(F)(F)F)cc(C(F)(F)F)c1` (stereo not given) displayed a melting point of 213 to 215 °C.

As to `COc1cccc(Cc2cc3ccccc3s2)c1`, the melting point was in the range of 74 to 75.5 °C.

`CCn1c(=O)c(C)cc2cnc(S(C)=O)nc21` (stereo not given): the melting point was in the range of 148 to 150 °C.

With `CC1(C)CC(Cc2ccc(CC3CC(C)(C)N(Cc4ccccc4)C(C)(C)C3)cc2)CC(C)(C)N1Cc1ccccc1`, the melting point lay within 207 to 208 °C.

`Nc1ccc(C(=O)c2ccccc2)c(F)c1`: the melting point lay in the range of 133 to 135 °C.

In turn, `Cc1ccc(OCC(CO)NC(C)(C)C)c(-c2ccc(NN)nn2)c1` (stereo not given) displayed a melting point of 172 to 178 °C.

The compound `O=C(O)CC12CCC(=O)N1C(=O)CC2` gave a melting point of 177 to 180 °C.

Take `CCCCCCCCCCCCCCCCCCOc1cccc(CC(=O)N(CC(=O)OC)CC(=O)OC)c1`: the melting point was in the range of 52 to 55 °C.

In the case of `CCOc1c(C)cc(P(c2cc(C)c(OCC)c(C)c2)c2cc(C)c(OCC)c(C)c2)cc1C`, the melting point was determined as 122 °C.

As to `CC(=NS(=O)(=O)C=Cc1c(Cl)cccc1Cl)NC1CC1`, the melting point was in the range of 121 to 124 °C.

Take `Cc1cc(C2=CCN(CCCC(O)c3ccccc3)CC2)on1` (stereo not given): the melting point was 108 to 109 °C.

With `N=C(N)c1cc2cc(F)c(F)cc2o1`, the melting point came to 178 °C.

Turning to `NC(=S)N(O)[C@H]1C[C@@H](c2ccc(F)cc2)C1`, the melting point was in the range of 156 to 158 °C.

As to `CC(=O)N(CC(=O)N1CC1C#N)c1ccccc1` (stereo not given), the melting point is 69 to 75 °C.

Take `CCCCc1nc(C(C)(C)O)c(C(=O)O)n1Cc1ccc(-c2ccccc2-c2nnn[nH]2)cc1`: the melting point fell in the range of 138 to 141 °C.

`CC1NC(=O)NN=C1c1ccc(NCCO)cc1` (stereo not given): the melting point is 182 to 185 °C.

The compound `COc1cccc(C2=C(CN(C)C)COc3ccccc32)c1` gave a melting point of 68 to 71 °C.

`Nc1cccc(Cc2nnn[nH]2)c1` gave a melting point of 140 °C.

Take `CCS(=O)(=O)Nc1ccc(C(=O)CN2CCN(c3ccncc3)CC2)cc1`: the melting point lay in the range of 204 to 208 °C.

As for `COC(=O)c1ccc(N(N)C(C)=O)c(N)c1`, the melting point lay within 175 to 178 °C.

For `CCOC(=O)C(C#N)=CNc1cccc(I)c1`, the melting point was in the range of 140 to 141 °C.

Turning to `CNC(=O)CCc1ccc(F)cc1F`, the melting point was in the range of 90 to 91 °C.

Consider `CCn1c(=O)c2c(nc(/C=C/c3ccc(OCc4ccccc4)cc3)n2C)n(CC)c1=O`, for which the melting point is 185 °C.

`O=C1CCC(c2ccc(N3C(=O)c4ccccc4C3=O)cc2)CC1`: the melting point fell in the range of 150 to 152 °C.

Compound `CCOC(=O)c1cn(C(=O)c2ccccc2)c2sc(-c3ccc(OC)cc3)c(C)c2c1=O` yielded a melting point of 110 to 112 °C.

As to `Cc1n[nH]cc1-c1cnc2[nH]c(=O)n(CC3CCOCC3)c2n1`, the melting point lay in the range of 222 to 224 °C.

In turn, `CC(=O)SCC(C)C1CCC2C3CCC4=C(N)C(=O)CCC4(C)C3CCC12C` (stereo not given) gave a melting point of 173 to 176 °C.

The compound `Cn1c(=O)c(S(C)(=O)=O)c(O)c2ccccc21` returned a melting point of 169 to 172 °C.

Turning to `COC(=O)c1ccc(C(=O)NC(C)C)cc1S(=O)(=O)NC(C)(C)C`, the melting point lay within 159 to 160 °C.

Consider `CC(C)OC(=O)c1cccc(C(O)(c2ccc3c(c2)c(-c2cccc(Cl)c2)cc(=O)n3C)c2cncn2C)c1` (stereo not given), for which the melting point came out at 150 °C.

The compound `COC(=O)c1nc(Cl)nc(N)c1Cl` came in with a melting point of 164 to 166 °C.

Compound `CC(=O)c1ccc(-c2ccc(C(C)=O)s2)s1` displayed a melting point of 235 °C.

In turn, `O=C(O)CCCOc1ccc(N2CCN(c3ccncc3)CC2)cc1` gave a melting point of 305 to 306 °C.

Compound `Cc1oc(C2CC=CCC2)nc1CC(=O)O` (stereo not given) showed a melting point of 86 to 87 °C.

`CCn1cc(C(=O)NCc2ccc(Cl)cc2)c(=O)c2cc(C#CCCO)sc21` displayed a melting point of 158 to 162 °C.

In turn, `CN1CCC(Oc2ccc(C(=O)NN)cc2)CC1` showed a melting point of 110 to 112 °C.

The compound `CCNC(=O)N1C2=NC(C)(C)N(C)C(=O)N2c2ccccc21` came in with a melting point of 127 to 131 °C.

`O=C1c2ccccc2C(O)N1CCCN1CCN(c2ccc(Cl)cc2)CC1` (stereo not given) returned a melting point of 173 °C.

With `Cc1ccccc1CNc1nc(Cl)nc2ccccc12`, the melting point fell in the range of 215 to 217 °C.

For the compound `CCCc1nn(-c2ccc(C(F)(F)F)cn2)cc1CCCOc1cc(CCC(=O)O)n(C)n1`, the melting point fell in the range of 80 to 81 °C.

Take `CCOP(=O)(/C=C/c1cn(-c2ccccc2)nc1OCc1ccc(OCc2nc(-c3ccc(OC)c(C(=O)O)c3)oc2C)c(OC)c1)OCC`: the melting point fell in the range of 171 to 172 °C.

In turn, `CC1(C)OC[C@H]([C@@H](CS(=O)(=O)c2ccc(Oc3ccc(Cl)cc3)cc2)N(O)C=O)O1` came in with a melting point of 157 to 158 °C.

Take `O=C1C(Br)=CN=CC1Br` (stereo not given): the melting point turned out to be 320 °C.

Turning to `CC(=O)c1nn(-c2c(Cl)cc(C(F)(F)F)cc2Cl)cc1C1CC1(Br)Br` (stereo not given), the melting point came to 150 °C.

Consider `Cc1cc(C)c(N2CCCc3c2nn(C)c3NC(=O)OC(C)(C)C)c(Cl)c1`, for which the melting point was 171 to 176 °C.

As to `CC(=O)Nc1ccc(Oc2c(NCc3ccccc3)cc(C(=O)O)cc2S(N)(=O)=O)cc1`, the melting point is 255 °C.

On to `C=CCNc1cnc(-c2ccccc2)c(-c2ccccc2)n1`, for which the melting point was in the range of 97 to 100 °C.

`CCCCN(C(=O)C1CC1)c1nnc(C)s1`: the melting point was in the range of 82 to 84 °C.

As for `N#Cc1c([N+](=O)[O-])ccc(Cl)c1CBr`, the melting point was 89 °C.

The compound `CC(C)(CS(=O)(=O)c1ccc(Cl)cc1)C(=O)C(Oc1ccc(Cl)cc1)n1cncn1` (stereo not given) had a melting point of 55 to 60 °C.

For `COc1ncc(S(C)(=O)=O)cc1CCC(=O)c1ccc(Cl)c(Cl)c1`, the melting point was 145 to 146 °C.

With `COc1cc2c(cc1SC)CCN(C(C)=O)CC2`, the melting point fell in the range of 138 to 140 °C.

In turn, `O=C(NOCC(O)CO)c1cc(Cl)c(F)c(F)c1Nc1ccc(I)cc1Cl` (stereo not given) came in with a melting point of 152 to 154 °C.

Compound `CC(=O)Nc1ccc(C(=O)NC2CCN(C3CCCCC3)C2)cc1` (stereo not given) yielded a melting point of 184 to 186 °C.
